Reference: US20200390781A1, “CERTAIN (2S)-N-[(1S)-1-CYANO-2-PHENYLETHYL]-1,4-OXAZEPANE-2-CARBOXAMIDES FOR TREATING ANCA ASSOCIATED VASCULITIDES” (INSMED INCORPORATED, priority 2018, published 2020)

Legend:
Type in all cases: cell-based, human
[1] = system: surface proteinase 3 (PR3); assay: Surface PR3 expression by flow cytometry in neutrophils differentiated in the presence of INS1007; conditions: for percentage of cells with no detectable surface PR3 expression: untreated approximately 30-40%, FIG. 2
Experimental: (§1) To evaluate the pharmacological effects of INS1007 on surface PR3 expression, total PR3 expression, and NSP activity, stem cells were differentiated to neutrophils in the presence of INS1007 at increasing concentrations. Primary bone marrow (BM) or umbilical cord blood (UC) derived CD34^+ neutrophil progenitor cells (AllCells; Alameda, Calif.) were cultured for 7 days in STEMSPAN™ SFEM media (Stemcell Technologies; Tukwila, Wash.) supplemented with recombinant human Stem Cell Factor (Peprotech; Rocky Hill, N.J.) and recombinant human IL-3 (Peprotech). The cells were differentiated in culture for another 7 days in STEMSPAN® SFEM media (Stemcell Technologies) with recombinant human Granulocyte Colony Stimulating Factor (Peprotech), plus increasing concentrations of INS1007 (0-10 μM). At the end of the differentiation/treatment period, cells were harvested for analysis.
(§2) Differentiated neutrophils were harvested for flow cytometry to quantify PR3 expression on the surface of neutrophils (FIGS. 1 and 2) and neutrophil total PR3 expression (FIG. 3).
After harvest, the cells were resuspended in FACS staining buffer and Fc receptors were blocked for 30 min at 4° C. Cells were stained for 30 min with a mouse anti-PR3 monoclonal antibody (Abcam: Cambridge, Mass.) or a mouse monoclonal IgG isotype control (Abcam), followed by a Cy5-conjugated goat anti-mouse IgG secondary antibody (Abcam), and then analyzed using a GUAVA® EASYCYTEI^M 6HT flow cytometer (Millipore; Billerica, Mass.).

total proteinase 3 (PR3) = assay: Total PR3 expression (surface and intracellular) by flow cytometry in differentiated neutrophils; conditions: for total PR3 levels: FIG. 3
Experimental: as §1, §2

neutrophil elastase (NE) = assay: NE activity in lysates of neutrophils differentiated in the presence of INS1007; conditions: highest concentration tested (10 μM); FIG. 5
Experimental: (§3) To evaluate the pharmacological effects of INS1007 on surface PR3 expression, total PR3 expression, and NSP activity, stem cells were differentiated to neutrophils in the presence of INS1007 at increasing concentrations. Primary bone marrow (BM) or umbilical cord blood (UC) derived CD34^+ neutrophil progenitor cells (AllCells; Alameda, Calif.) were cultured for 7 days in STEMSPAN™ SFEM media (Stemcell Technologies; Tukwila, Wash.) supplemented with recombinant human Stem Cell Factor (Peprotech; Rocky Hill, N.J.) and recombinant human IL-3 (Peprotech). […]
(§4) Neutrophils in a separate aliquot of harvested neutrophils were lysed with 10% (v/v) Triton X-100 in PBS and the lysates were added to 96-well plates. Peptide substrates for NE (N-Methoxysuccinyl-Ala-Ala-Pro-Val-7-amido-4-methylcoumarin; Sigma-Aldrich; St. Louis, Mo.), for PR3 (aminobenzoyl-Val-Ala-Asp-Cys-Ala-Asp-Gln-Lys(2,4-dinitrophenyl); GenScript; Piscataway, N.J.), and for CatG (N-Succinyl-Ala-Ala-Pro-Phe p-nitroanilide; Sigma) were added, and either fluorescence or absorbance was quantified using a SYNERGY™ microplate reader (BioTek; Winooski, Vt.). […] A portion of cell lysate samples was retained for protein quantification using a PIERCE™ BCA Protein Assay Kit (Thermo Fisher) according to the manufacturer's instructions. […]

proteinase 3 (PR3) = assay: PR3 activity in lysates of neutrophils differentiated in the presence of INS1007; conditions: highest concentration tested (10 μM); FIG. 6
Experimental: as §3, §4

cathepsin G (CatG) = assay: CatG activity in lysates of neutrophils differentiated in the presence of INS1007; conditions: highest concentration tested (10 μM); data not shown
Experimental: as §3, §4

surface PR3 = assay: Fluorescence microscopy of surface PR3 on differentiated neutrophils; conditions: differentiation in the presence of 10 μM INS1007; neutrophils derived from bone marrow or umbilical cord stem cells (both cell types)
Experimental: as §1, with “At the end of the differentiation/treatment period, cells were harvested for analysis.” left out
In a separate experiment, neutrophils were harvested, stained for 30 min. with either a mouse anti-PR3 monoclonal antibody (Abcam; Cambridge, Mass.) or a mouse monoclonal IgG isotype control (Abcam), followed by a Cy5-conjugated goat anti-mouse IgG secondary antibody (Abcam), fixed in 4% formaldehyde, and mounted to glass slides with PROLONG® Diamond Antifade Mountant with DAPI (Thermo Fisher; Waltham, Mass.). Samples were imaged with an Axio fluorescence microscope (Zeiss; Oberkochen, Germany) using constant settings while imaging samples from different treatment conditions.

Cn1c(=O)oc2ccc(-c3ccc(C[C@@H](C#N)NC(=O)[C@@H]4CNCCCO4)cc3)cc21 [INS1007, (2S)—N-{(1S)-1-cyano-2-[4-(3-methyl-2-oxo-2,3-dihydro-1,3-benzoxazol-5-yl)phenyl]ethyl}-1,4-oxazepane-2-carboxamide]
percentage of cells with no detectable surface PR3 expression ([1]; neutrophils derived from bone marrow stem cells): ~80% | maximum reduction of surface PR3 expression (MFI, percent of untreated cells) ([1]; neutrophils derived from both bone marrow and umbilical cord blood stem cells, INS1007 0-10 μM, FIG. 1): greater than 60% | percentage of cells with no detectable surface PR3 expression ([1]; neutrophils derived from umbilical cord blood stem cells): more than 50% | total PR3 levels (total proteinase 3 (PR3); bone marrow stem cell-derived neutrophils, not completely concentration-dependent): significantly reduced | percentage of cells with positive total PR3 expression (total proteinase 3 (PR3); neutrophils derived from either umbilical cord blood or bone marrow stem cells, FIG. 4): did not reduce | total PR3 levels (total proteinase 3 (PR3); umbilical cord blood stem cell-derived neutrophils): did not reach statistically significant reduction | decrease of NE activity (neutrophil elastase (NE)): > 90% | decrease of PR3 activity (proteinase 3 (PR3)): > 90% | decrease of CatG activity (cathepsin G (CatG)): greater than 75% | surface PR3 (fluorescence microscopy) (surface PR3): markedly reduced
